Assay results reported in patent US5032505A, “Inhibitors for glycosaminosyl transferase V” (Chembiomed, Ltd., priority 1988, dated 1991).

Tests used:
GnT-V [1] = molecular target: T1, GnT-V (Mesocricetus auratus, UniProt A0A1U8C8T3); assay: GnT-V acceptor assay (transfer of GlcNAc from UDP-GlcNAc to synthetic acceptor); assay type: biochemical
T1 sequence (A0A1U8C8T3 1-740): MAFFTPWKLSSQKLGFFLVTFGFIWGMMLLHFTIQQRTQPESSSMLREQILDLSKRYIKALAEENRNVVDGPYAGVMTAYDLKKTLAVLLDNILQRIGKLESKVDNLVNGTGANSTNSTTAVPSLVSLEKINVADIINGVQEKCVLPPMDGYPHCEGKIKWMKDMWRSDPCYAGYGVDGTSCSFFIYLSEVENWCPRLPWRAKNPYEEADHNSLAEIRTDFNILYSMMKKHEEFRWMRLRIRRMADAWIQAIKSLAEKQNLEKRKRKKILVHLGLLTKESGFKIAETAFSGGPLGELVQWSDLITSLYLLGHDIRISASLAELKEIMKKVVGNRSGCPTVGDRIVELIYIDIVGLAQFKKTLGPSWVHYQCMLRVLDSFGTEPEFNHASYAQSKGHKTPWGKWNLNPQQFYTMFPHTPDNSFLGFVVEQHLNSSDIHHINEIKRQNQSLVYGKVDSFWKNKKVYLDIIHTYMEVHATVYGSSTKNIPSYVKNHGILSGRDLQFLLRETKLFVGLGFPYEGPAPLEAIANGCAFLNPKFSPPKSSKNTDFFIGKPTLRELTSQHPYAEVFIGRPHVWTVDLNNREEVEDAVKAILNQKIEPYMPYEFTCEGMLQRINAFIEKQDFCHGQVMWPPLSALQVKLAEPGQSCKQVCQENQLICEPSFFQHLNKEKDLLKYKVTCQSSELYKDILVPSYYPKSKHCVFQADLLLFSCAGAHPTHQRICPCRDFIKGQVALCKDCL
Experimental: One form of the assay is conducted by measuring the uptake of beta-GlcNAc from UDP-beta GlcNAc in the presence of the test extract by the acceptors of the invention. A variety of protocols to detect this uptake can be employed, including, for example, conjugation of the acceptor to a solid support and measuring the uptake of labeled beta-GlcNAc. An illustrative procedure is set forth, using as acceptor the trisaccharide 8-methoxycarbonyl octyl beta-GlcNAc(1-2)alpha-Man(1-6)beta-Man, in Pierce, M., et al, Biochem Biophys Res Commun (1987) 146:679-684, incorporated herein by reference. This procedure uses radiolabeled UDP-beta GlcNAc to provide a detection means for uptake of the substrate. Other protocols for measuring GnT-V using the acceptors of the invention can be adapted, for example, from the procedure used to measure the levels of GnT-V acceptor in EPO published application 134,292 to Abbott Laboratories.
The procedure for assaying GnT-V activity is described in Tahir, S.H., et al, Can J Chem (1986) 64:1771, cited above, and incorporated herein by reference. This procedure is also described in Palcic, M. M., et al, Glycoconjugate J (1988) 5:49, and in Hindsgual, O., et al, Carbohydrate Res (1988) 173:263, both incorporated herein by reference. The latter two citations describe the results of this assay using various synthetic acceptors.

GnT-V [2] = molecular target: T1, GnT-V; details: as acceptor for GnT-V; Palcic reference; read-out: apparent Km; cited from earlier work
B16 melanoma = details: literature; cited from earlier work
MDAY-D2 lymphoma cells = details: literature; cited from earlier work
tumor cells [3] = details: literature; cited from earlier work
tumor cells [4] = details: literature; cited from earlier work; remark: listed apart in the source

Molecule: CCCCCCCCO[C@@H]1O[C@H]([C@@H](C)O[C@H]2O[C@H](CO)[C@@H](O)[C@H](O)[C@@H]2O[C@@H]2O[C@H](CO)[C@@H](O)[C@H](O)[C@H]2NC(C)=O)[C@@H](O)[C@H](O)[C@H]1O
- Vmax relative to the unmethylated analog (GnT-V [1]; as acceptor, assay of the Pierce reference): three times that of the unmethylated analog

Molecule: COC(=O)CCCCCCCCO[C@@H]1O[C@H](CO[C@H]2O[C@H](CO)[C@@H](O)[C@H](O)[C@@H]2O[C@@H]2O[C@H](CO)[C@@H](O)[C@H](O)[C@H]2NC(C)=O)[C@@H](O)[C@H](O)[C@@H]1O [8-methoxycarbonyloctyl 6-O-[2-O-(2-acetamido-2-deoxy-beta-D-glucopyranosyl)-alpha-D-mannopyranosyl]-beta-D-mannopyranoside]
- Km (GnT-V [2]): 80 µM

Molecule: CC(=O)N[C@H]1[C@H](O[C@@H]2[C@@H](OCC3CCCCC3)O[C@H](CO)[C@@H](O)[C@@H]2O)O[C@H](CO)[C@@H](O)[C@@H]1O [Cyclohexylmethyl 6-O-[2-O-(2-acetamido-2-deoxy-beta-D-glucopyranosyl)-alpha-D-mannopyranoside]]
- ability to act as an acceptor, relative to the remaining compounds (GnT-V [1]; relative to the other five octyl trisaccharide acceptors): about 25%

Molecule: COC(=O)CCCCCCCCO[C@@H]1O[C@H](CO[C@H]2O[C@H](CO)[C@@H](O)[C@H](O)[C@@H]2O)[C@@H](O)[C@H](O[C@H]2O[C@H](CO)[C@@H](O)[C@H](O)[C@@H]2O)[C@@H]1O [GnT-1 Acceptor]
- entry into cells (Lec8 CHO Cells): has entered the cells to some extent after 3 hr and to a greater extent after 6

Molecule: O[C@H]1[C@H](O)[C@@H](O)CN2CC[C@H](O)[C@H]12 [castanospermine]
- organ colonization by B16 melanoma (B16 melanoma): inhibit organ colonization by B16 melanoma

Molecule: CCCCCCCCO[C@@H]1O[C@H]([C@H](C)O[C@H]2O[C@H](CO)[C@@H](O)[C@H](O)[C@@H]2O[C@@H]2O[C@H](CO)[C@@H](O)[C@H](O)[C@H]2NC(C)=O)[C@@H](O)[C@H](O)[C@H]1O [proS methylated compound]
- effectiveness as an acceptor (GnT-V [1]; compared with the proR methylated compound): less effective as an acceptor

Molecule: O[C@H]1[C@H]2[C@H](O)CCCN2C[C@H]1O [swainsonine]
- colonization by metastatic MDAY-D2 lymphoma cells (MDAY-D2 lymphoma cells): inhibit colonization by metastatic MDAY-D2 lymphoma cells
- organ colonization by B16 melanoma (B16 melanoma): inhibit organ colonization by B16 melanoma
- susceptibility of tumor cells to natural killer cells (tumor cells [3]): enhance susceptibility of tumor cells to natural killer cells
- tumor cell growth rate in soft agar (tumor cells [4]): reduce tumor cell growth rate in soft agar

Molecule: tunicamycin
- organ colonization by B16 melanoma (B16 melanoma): inhibit organ colonization by B16 melanoma
